Measured values: patent US20230135127A1, “COMPOSITIONS AND METHODS FOR DISEASE TREATMENT AND PREVENTION BY PH MODIFIERS AND/OR CELL PROLIFERATION INHIBITORS” (priority 2021, published 2023)
Counter-ions that a name gives are not always drawn. Like-named read-outs stand apart in the source and are kept apart here.

Experiments:
primary lymph node cells = assay: In vitro treatment of primary lymph node cells in FBS, Ki-67; assay type: cell-based, mouse; details: 8.75 mM in FBS, 37° C., 5 hours
Experimental: (§1) For studies of the effects of pH modifier on proliferating cells, primary thymocytes or lymph node cells (4×10^6 cells/ml) were incubated in FBS comprising 10% of saline or 87.5 mM HCl, HOAc or NaOH prepared in saline in 37° C. water bath for 5 hours before analyses. The tumor cells (2×10^6 cells/ml) were incubated in FBS comprising 10% saline or 87.5 mM HCl, HOAc, or NaOH prepared in saline in 37° C. water bath for 3-5 hours.
(§2) Cells were washed 3 times with PBS then stained with Zombie viability dyes at room temperature for 20 minutes. At the end of incubation, 10% volume of FBS was added to absorb excess Zombie dyes. After washes, the cells were stained with conjugated antibodies against surface antigens on ice. As specified in some experiments, the cells were subsequently stained with fluorochrome-conjugated Avidin. For Annexin V staining, cells were washed twice with plain PBS and once with Annexin V binging buffer (10 mM HEPES, pH7.4, 140 mM NaCl, 2.5 mM CaCl2)) after surface antigen staining, and incubated with fluorochrome-conjugated Annexin V in Annexin V binding buffer for 15 min at room temperature. The cells were washed twice in Annexin V binding buffer and resuspended in Annexin V binding buffer. 7-AAD was added to the cells before analyzed by flow cytometry. For Ki-67 and Foxp3 staining, lymphocytes (after Zombie dye and surface antigen staining) or tumor cells (without surface antigen staining) were fixed and permeabilized using Foxp3 staining buffer kit, then stained with PE-conjugated anti-mouse or human Ki-67 antibodies. (Biolegend, San Diego, Calif., USA). Stained and unstained cells were analyzed on Accuri C6 Flow Cytomer (Accuri Cytometers, Inc., Ann Arbor, Mich.), FACS Canto (BD Bioscience, San Jose, Calif., USA) and Attune™ cytometer (Invitrogen, Carlsbad, Calif.). Data analyses were carried out using FlowJo X.
Thus, to assess the full potentials of the pH modifiers, in vitro experiments were carried out, in which primary lymph node cells were treated with saline or saline plus the pH modifiers in 100% FBS in 37° C. water bath. Such in vitro culture systems were designed to be free of interference by pH buffering agents in common tissue culture system. The final concentration of the pH modifiers in the in vitro cultures was set to be 8.75 mM.

[1] = tested on: mediastinal lymph node (MLN) cells; details: for percentage of Lym2 lymphocytes in MLN: saline 2.26%; for percentage of Ki-67hi B cells in Lym1: saline 3.91%; for percentage of Lym1 lymphocytes in MLN: saline 73.7%; for percentage of Ki-67hi Lym1 B cells: saline 4.29%; for percentage of Ki-67hi Lym2 B cells: saline 35.2%; for CD8 T cells within Lym1: saline 13.9%
Experimental: For the analyses of the effects of pH modifiers on lymphocyte populations and their proliferation in vivo in Example 3, the mice were sensitized, challenged with OVA and received either i.t. or i.p. treatments. The same challenge and treatment solutions as in the asthma model were used. In the first set of experiments, the mice were challenged with 60 μl of 1×OVA challenge solution without pH modifiers by i.t. injection for 2 consecutive days. One day of the second challenge, the mice received one-time i.t. treatment with saline or saline plus HCl or HOAc. The mice were sacrificed the next day by CO2 inhalation to collect lymphoid tissues. In the second set of experiments, the mice were challenged with OVA and treated with i.t. instillation of saline or saline plus HCl or HOAc or treated with i.p. injection of saline plus NaOH for a total of 3 doses as in the asthma model. On day 3 after the final challenge and treatment, mice were sacrificed by CO2 inhalation to collect lymphoid tissues.
as §2
The DLNs are the primary location where active immune responses to local antigen exposure take place. The DLNs of the lungs are the mediastinal lymph nodes (MLNs). Two sets of experiments using the OVA sensitization and challenge models were carried out to investigate whether pH modifiers can affect lymphocyte populations and proliferation. In the first set of experiments, MLNs were collected from the mice 3 days after the first OVA challenge and 1 day after a single treatment. In the second set of experiments, MLNs were collected 7 days after the initial challenge and 3 days after the third treatments.

Raji cells = assay: In vitro treatment of Raji tumor cells in FBS
Experimental: Jurkat and Raji tumor cell lines were maintained in Complete RPMI-1640 Medium (RPMI-1640 plus 1× GlutaMAX, 100 U/ml Pen-Strep (Gibco Life Technologies, Grand Island, N.Y., USA), and 5% heat-inactivated fetal bovine serum (FBS) (Atlanta Biologicals, Flowery Branch, Ga., USA)) at 37° C. and 5% CO2. The tumor cells were washed 3 times with saline plus 1% FBS before in vitro treatments with saline or saline plus pH modifiers.
as §1
Cells were washed 3 times with PBS then stained with Zombie viability dyes at room temperature for 20 minutes. At the end of incubation, 10% volume of FBS was added to absorb excess Zombie dyes. […] 7-AAD was added to the cells before analyzed by flow cytometry. […] Stained and unstained cells were analyzed on Accuri C6 Flow Cytomer (Accuri Cytometers, Inc., Ann Arbor, Mich.), FACS Canto (BD Bioscience, San Jose, Calif., USA) and Attune™ cytometer (Invitrogen, Carlsbad, Calif.). […]

[2] = tested on: proliferating cells in the intestinal villi; assay: Ki-67 immunohistochemistry of intestines; assay type: in vivo, mice; details: i.p. x3, one day after third dose
Experimental: (97). Briefly, the tissue sections were first deparaffinized and rehydrated.
Mice were i.p. treated with saline or saline plus HCl, HOAc or NaOH every other day for a total of 3 doses. One day after the third dose, mice were sacrificed, and tissue sections of the intestines were analyzed by immunohistochemistry staining of Ki-67 with hematoxylin counter staining.

[3] = 1 day after single i.t. treatment
[4] = 1 day after single i.t. treatment, saline 4.5×10^7
[5] = 3 days after third treatment, saline 5.96×10^7

SMILES	Ki-67+ cells in live total lymphocytes, CD4, CD8 T cells and B cells (primary lymph node cells)	reduction of total MLN cells vs saline [1, 3] [%]	average number of total MLN cells [1, 4]	reduction of total MLN cells vs saline ([1]; 3 days after third treatment) [%]	average number of total MLN cells [1, 5]	percentage of Lym2 lymphocytes in MLN ([1]; first set) [%]	percentage of Ki-67hi Lym1 cells ([1]; first set, saline 3.31%) [%]	percentage of Ki-67hi B cells in Lym1 ([1]; first set) [%]	CD8 T cells within Lym2 ([1]; first set, saline 9.69%) [%]	CD4 T cells within Lym2 ([1]; first set, saline 14.2%) [%]	B cells within Lym1 ([1]; first set, saline 42.5%) [%]	percentage of Ki-67hi Lym2 cells ([1]; first set, saline 54.5%) [%]	B cells within Lym2 ([1]; first set, saline 62.6%) [%]	Ki-67 mean fluorescence intensities of Ki-67hi Lym2 and Lym2 B cells vs saline ([1]; second set)	percentage of Ki-67hi Lym1 cells ([1]; second set, saline 2.73%) [%]	percentage of Ki-67hi Lym1 B cells ([1]; second set) [%]	percentage of Ki-67hi Lym2 cells ([1]; second set, saline 34.9%) [%]	percentage of Ki-67hi Lym2 B cells ([1]; second set) [%]	Ki-67+ cells in the intestinal villi (IHC) [2]	Ki-67 staining intensity in intestines [2]	further results
Cl [HCl, hydrochloric acid]	almost eliminated all Ki-67^+	12	4.0×10^7	5.5	5.6×10^7	2.83	2.92	2.79	8.2	13.4	34.4	49.1	44.8	much lower	2.42	3.62	34.9	35.5	more Ki-67^+ cells in the intestinal villi of saline- or NaOH-treated mice than the HCl- or HOAc-treated mice	stronger than those of the HCl- or HOAc-treated mice	percentage of Ki-67hi B cells in Lym2 ([1]; first set, saline 62.6%): 51.1%; percentage of Lym1 lymphocytes in MLN ([1]; first set): 68.3%; viability (live cells) of Raji cells (Raji cells; FBS with 10% of 87.5 mM modifier, 37° C., 3-5 hours, saline 89.4%): 49.2%
CC(=O)O [HOAc, acetic acid]	almost eliminated all Ki-67^+	84	0.75×10^7	29	4.23×10^7	0.35	1.65	1.58	2.7	3.23	22.2	27.2	46.9	much lower	2.67	2.38	25.3	24.9	more Ki-67^+ cells in the intestinal villi of saline- or NaOH-treated mice than the HCl- or HOAc-treated mice	stronger than those of the HCl- or HOAc-treated mice	CD8 T cells within Lym1 ([1]; first set): 1.75%; CD4 T cells within Lym1 ([1]; first set, saline 39.6%): 8.17%; percentage of Ki-67hi B cells in Lym2 ([1]; first set, saline 62.6%): 37.9%; percentage of Lym1 lymphocytes in MLN ([1]; first set): 32.4%; percentage of Ki-67lo cells in Lym1 ([1]; first set, saline 80.4%): 32.9%; increase of B cells within Lym1 vs saline ([1]; second set): 60.4%; reduction of CD4 T cells within Lym1 vs saline ([1]; second set): 19.3%; reduction of CD4 T cells within Lym2 vs saline ([1]; second set): 88%; reduction of CD8 T cells within Lym1 vs saline ([1]; second set): 46.8%; reduction of CD8 T cells within Lym2 vs saline ([1]; second set): 91.7%; CD8 T cells within Lym2 ([1]; second set, saline 4.21%): 0.35%; CD4 T cells within Lym2 ([1]; second set, saline 6.91%): 0.8%; percentage of Lym2 in MLN ([1]; second set, saline 8.10%): 38.7%; CD8 T cells within Lym1 ([1]; second set): 7.39%; B cells within Lym1 ([1]; second set, saline 27.3%): 43.8%; CD4 T cells within Lym1 ([1]; second set, saline 54.9%): 44.3%; B cells within Lym2 ([1]; second set, saline 84%): 93%; viability (live cells) of Raji cells (Raji cells; human, 8.75 mM): 48.9%
[Na+].[OH-] [NaOH, sodium hydroxide]					7.9×10^7									higher	3.48	4.23	42.2	44.7	more Ki-67^+ cells in the intestinal villi of saline- or NaOH-treated mice than the HCl- or HOAc-treated mice	strongest	percentages of Ki-67+ cells in CD4 T cells and B cells vs saline (primary lymph node cells): nearly tripled; percentages of Ki-67+ cells in total lymphocytes and CD8 T cells vs saline (primary lymph node cells): more than tripled; increase of total MLN cells vs saline ([1]; 3 days after third i.p. treatment): 32%
